Patent US20190167725A1, “COMPOSITION AND METHOD FOR IMPROVING EFFICACY OF STEM CELLS” (University-Industry Cooperation Group of Kyung Hee …, priority 2016, published 2019)

Key:
[1] = test system: ST2 cells (mouse bone marrow-derived MSCs); conditions: 10 mM, 12 hours, growth factor reduced Matrigel
Description: Then, the upper part of each insert was coated with 50 μL of growth factor reduced Matrigel (BD Bioscience). […] The lower chamber membrane was confirmed using a Nikon ECLIPSE TS 100 microscope.

[2] = test system: human bone marrow-derived MSCs (hMSCs); conditions: concentration series, serum-free DMEM
Source text: The human bone marrow-derived MSCs (hMSCs) were obtained from Lonza (Basel, Switzerland) and cultured in MSCGM medium (Lonza). Cells which underwent 3 to 6 subcultures were used in the experiment.

[3] = test system: mouse bone marrow-derived MSCs; conditions: 200 mM in drinking water for 7 days, vs drinking water without sodium acetate
Description: Each C57BL/6 mouse was fed drinking water with or without sodium acetate (200 mM) for 7 days, and femurs were collected from each mouse. The collected femurs were crushed using a mortar, treated with 0.2% type I collagenase (Worthington), and thereby the bone marrow cells attached to the bones were collected.

IL-10 = conditions: 10 mM, 48 hours, ST2 cells, vs untreated control (CON)
Description: (§1) ST2 cells (3.8×10^5 cells) were added to a 6-well plate under the condition of normal growth medium and cultured overnight. The medium was replaced with low-glucose DMEM medium without FBS and the cells were cultured for 18 hours. Then, the cells were treated with 10 mM sodium acetate (C2) for 48 hours or not treated (CON).
(§2) A cell lysate was obtained from the sample, and total RNA was isolated using TRIzol. The cDNA was synthesized from the total RNA, and the expression levels of mRNAs of VEGF and IL-10 in cells were measured by real-time PCR using primers for VEGF and IL-10 and SYBR green PCR Master Mix (fluorescent material).

VEGF = conditions: 10 mM, 48 hours, ST2 cells, vs untreated control (CON)
Description: as §1, §2

[4] = test system: ST2 cells (mouse bone marrow-derived MSCs); conditions: 0 mM to 10 mM in lower chamber, 12 hours
Description: The cells were maintained in RPMI1640 medium (Invitrogen) containing 10% FBS, 1% penicillin, and streptomycin (Invitrogen). The cells were cultured to a confluence of 80%, recovered with 0.25% trypsin/EDTA (Invitrogen), and subcultured in a ratio of 1:3 to 1:4. The cells which underwent 5 to 8 subcultures were used in the experiment. The cells were maintained in a 37° C. incubator containing 5% CO2.
Millicell culture plate inserts with a pore size of 8 μm (EMD Millipore) were coated with type I collagen (0.5 μg/mL). The ST2 cells (2.5×10^4 cells) were suspended in normal growth medium and added into an upper chamber. After culturing the cells for 5 to 6 hours, the medium was replaced with DMEM medium containing 2% FBS and 1% penicillin and streptomycin.
After culturing for an additional 12 hours, each insert was fixed with 4% formaldehyde in the presence of PBS at room temperature for 10 minutes. The ST2 cells were stained with a hematoxylin solution for 30 minutes, and the cells remaining on the upper chamber membrane were removed using cotton swabs. The lower chamber membrane was confirmed using the Nikon ECLIPSE TS 100 microscope. The number of cells in each cell image was counted using Adobe Photoshop CS6.

[5] = test system: ST2 cells (mouse bone marrow-derived MSCs); conditions: 10 mM, 36 hours treatment, 10 days culture, colonies 1 mm or greater
Description: Then, the cells were added to a plate at a concentration of 5.7×10^4 cells/well and cultured under conditions of 37° C. and 5% CO2 for 10 days. The plate was then stained with a 1% crystal violet staining solution (Sigma-Aldrich) and the number of colonies was counted under a stereomicroscope. In particular, cell populations with a diameter of 1 mm or greater were considered as colonies.

[6] = test system: hematopoietic progenitor cells (Lin-/Sca1+/c-Kit+, LSK); conditions: sodium acetate 4 nmol/kg subcutaneous, blood collected after 10 minutes, vs normal control group
Description: Populations of circulating hematopoietic progenitor cells (HPCs), lineage negative, Sca-1 positive, and c-Kit positive (Lin^−/Sca1^+/c-Kit^+, LSK) cells were analyzed by a flow cytometry analyzer.
Monocytes were separated by Ficoll centrifugation. Then, hematopoietic progenitor cells were examined using anti-mouse CD4-FITC (Biolegend, San Diego, Calif.), anti-mouse CD49b-FITC (Biolegend), anti-mouse CD11b-FITC (Biolegend), anti-mouse B220-FITC (Biolegend), anti-mouse Gr-1-FITC (Biolegend), anti-mouse CD8-FITC (Biolegend), anti-mouse Ly-6A/E (Sca-1)-PE (Biolegend), and anti-mouse CD117 (c-Kit)-APC (Biolegend).

[7] = test system: human bone marrow-derived MSCs (hMSCs); conditions: 10 mM, two subcultures, 14 days culture, colonies 3 mm or greater
Description: Then, the cells were added at a concentration of 5×10^2 cells/well (10 cm dish) to low-glucose DMEM (GE Healthcare Life Sciences) containing 10% FBS, 1% penicillin and streptomycin (Invitrogen), and 1% L-glutamine in a plate, and the plate was incubated under conditions of 37° C. and 5% CO2 for 14 days. The plate was then fixed with 100% methanol, stained with a 1% crystal violet staining solution (Sigma-Aldrich), and the number of colonies was counted under a stereomicroscope. In particular, cell populations of human bone marrow-derived MSCs with a diameter of 3 mm or greater were considered as colonies.

`CC(=O)[O-].[Na+]` [sodium acetate] was tested, and the “invasion (number of cells through Matrigel)” value [1] was “significantly increased”, the “mobility of human bone marrow-derived MSCs (hMSCs)” value [2] was “increased in a manner dependent on the concentration” and the “increase in frequency of cell population of mouse bone marrow-derived MSCs (CFU-F)” value [3] was “about 2 fold”. For the same compound, the “increase in size of cell population of mouse bone marrow-derived MSCs (CFU-F)” value [3] was “about 2 fold”, the “increase of expression of IL-10 mRNA” value (IL-10) was “about 2.4 fold” and the “increase of expression of VEGF mRNA” value (VEGF) was “about 2.5 fold”. For the same compound, the “mobility of ST2 cells (number of migrated cells)” value (“mobility of ST2 cells” below) [4] was “increase in a manner dependent on the concentration”, the “colony-forming ability (CFU-F) of mouse bone marrow-derived MSCs” value [5] was “significantly increased” and the “hematopoietic progenitor cells (LSK) in the peripheral blood” value [6] was “enhancement of mobility from the bone marrow to the peripheral blood”. The “enhancement of colony-forming ability (CFU-F) of hMSCs” value [7] was “about 5 fold”.

With `CCCC(=O)[O-].[Na+]` [sodium butyrate] the “mobility of ST2 cells” value [4] was “increase in a manner dependent on the concentrations”.

In the case of `CCC(=O)[O-].[Na+]` [sodium propionate], the “mobility of ST2 cells” value [4] is reported as “increase in a manner dependent on the concentrations” and the “colony-forming ability (CFU-F) of mouse bone marrow-derived MSCs” value [5] is reported as “enhancement of a CFU-F-forming ability”.
